In test [1] the test system is B. amyloliquefaciens ART24. Kind of test: Antibiotic MIC following EFSA testing recommendations on lyophilized ART24 lots and cell banks. The format is cell-based, Bacillus amyloliquefaciens. Conditions: for MIC: Bacillus amyloliquefaciens. From the text: The minimum inhibitory concentration (MIC) of the listed antimicrobials is expressed as µg/mL.
The test system of test [2] is B. amyloliquefaciens ART12. Kind of test: MIC of metronidazole and fidaxomicin, CLSI standard method. It is filed as cell-based. The settings on record: Bacillus amyloliquefaciens, triplicates, 16 hours, read-out: MIC against ART12. The protocol: (§1) Briefly, minimum inhibitory concentration assays were carried out in triplicate using 96-well plates (Sarstedt). Two-fold serial dilutions from an initial concentration of 512 µg/mL of each antibiotic were carried out in BHI broth (Merck). An overnight of the target strain was subcultured and incubated to an OD600 nm of 0.5 before being diluted to give a final inoculum of 10^5 cfu/ml in 200 µL and added to the antibiotic preparations. The plates were incubated at an appropriate temperature and inspected after 16 hours. The MIC was determined as the lowest concentration at which no growth was visible.

The subject of test [3] is B. amyloliquefaciens ART24. The description is as above. The format is cell-based. The settings on record: Bacillus amyloliquefaciens, triplicates, 16 hours, read-out: MIC against ART24. How it is done: as §1
For test [4], the system named is B. amyloliquefaciens ART4. The test is described as above. It is filed as cell-based. Conditions: Bacillus amyloliquefaciens, triplicates, 16 hours, read-out: MIC against ART4. The protocol: as §1
Test [5] has as its system B. amyloliquefaciens ART12. Put plainly: Antibiotic MIC, VetMIC Lact-1 & Lact-2 panels. It is filed as cell-based, Bacillus amyloliquefaciens. The settings on record: Bacillus amyloliquefaciens, ART12; 24 hr at 37° C. The protocol: (§2) The wells of the prefabricated 96-well plates were filled with 100 μL of the final suspension. The plates were sealed with an […], Sigma Aldrich) sealing film (to facilitate growth of the aerobic Bacillus strains. The plates were then incubated for 24 hr at 37° C. The results are recorded after 24 hours as the lowest concentration of the antibiotic to inhibit visible growth. The prefabricated panels […], Uppsala, Sweden) comprising the antibiotics ampicillin, vancomycin, gentamicin, kanamycin, streptomycin, erythromycin, clindamycin, tetracycline, chloramphenicol, neomycin, penicillin, quinupristin-dalfopristin, linezolid, trimethoprim, ciprofloxacin and rifampicin were used.

Test [6] has as its system B. amyloliquefaciens ART24. Put plainly: Antibiotic MIC, VetMIC Lact-1 & Lact-2 panels. It is filed as cell-based, Bacillus amyloliquefaciens. Conditions: Bacillus amyloliquefaciens, ART24; 24 hr at 37° C. How it is done: as §2
In test [7] the test system is B. amyloliquefaciens ART4. Kind of test: Antibiotic MIC, VetMIC Lact-1 & Lact-2 panels. The format is cell-based, Bacillus amyloliquefaciens. The settings on record: Bacillus amyloliquefaciens, ART4; 24 hr at 37° C. How it is done:
as §2

The subject of another test is C. difficile ATCC 43255. Put plainly: C. difficile mouse model, in vivo efficacy. Set-up: species or system Mice (C57BL/6J female). The settings on record: to study day 10 post-C. difficile infection. The protocol: C. difficile mouse model. The mouse model of C. difficile infection was prepared as described elsewhere (Chen, X, et al., Gastroenterology 135:1984-1992 (2008)).
Mice (C57BL/6J female) were divided prospectively into 4 treatment groups of 15 animals (Table 7) and housed 5 animals per cage.
Mice received an antibiotic cocktail for eight consecutive days in their drinking water starting 13 days prior to C. difficile infection (study day 0). The antibiotic cocktail was changed every third day with freshly prepared antibiotics provided. The antibiotic cocktail consisted of 1% glucose, kanamycin (0.5 mg/mL), gentamicin (0.044 mg/mL), colistin (1062.5 U/mL), metronidazole (0.269 mg/mL), ciprofloxacin (0.156 mg/mL), ampicillin (0.1 mg/mL) and vancomycin (0.056 mg/mL). Five days prior to C. difficile infection, the antibiotic water was removed. Animals were placed in clean cages and sterile drinking water provided to the mice. Three days prior to infection mice were administered Clindamycin at 10 mg/kg via oral gavage in a volume of 10 mL/kg.
The strain was applied to TSA agar plates from frozen stocks (3 days prior to dosing) and cultured overnight at 37° C. […]
Mice were observed daily through the course of the study. […] Clinical observations were also performed with adverse observations recorded when appropriate. […]

[8] abbreviates: ART24, source CO-33-12A2, read-out: MIC for ART24.
[9] abbreviates: ART24, source CO-33 ART 24 BHI, read-out: MIC for ART24.
Where [10] appears, read: ART24, source CO-33 ART 024 S, read-out: MIC for ART24.
Setting [11] is: ART24, source YD CO-33-10A2, read-out: MIC for ART24.

≈ marks a conversion by molar mass, not a printed value. Where “and” joins values, the source holds several entries; their conditions need not be identical. Equal entries are not always repeated. Bounds are passed on as bounds.

From patent US20230132133A1, “METHODS AND COMPOSITIONS FOR THE TREATMENT OF C. DIFFICILE” (priority 2018, published 2023) come the findings set out here.

Consider `Cc1ncc([N+](=O)[O-])n1CCO` [Metronidazole, metronidazole], for which the minimum inhibitory concentration (MIC) in test [1] (ART24, anaerobic, source CO-33-12A2, read-out: MIC for ART24) is 64 µg/mL (≈ 374 µM); in test [1] (ART24, anaerobic, source CO-33 ART 24 BHI, read-out: MIC for ART24) it was 64 µg/mL (≈ 374 µM); in test [1] (ART24, anaerobic, source CO-33 ART 024 S, read-out: MIC for ART24) it was 64 µg/mL (≈ 374 µM); in test [1] (ART24, anaerobic, source YD CO-33-10A2, read-out: MIC for ART24), 64 µg/mL (≈ 374 µM); in test [1] (setting [8]) it was above 64 µg/mL; in test [1] (setting [9]), above 64 µg/mL. The MIC was above 64 µg/mL in test [1] (setting [10]); above 64 µg/mL in test [1] (setting [11]); 64 µg/mL in test [2]; 128 µg/mL in test [3]; 128 µg/mL in test [4].
For the molecule `CCc1c(Cl)c(O)c(Cl)c(O)c1C(=O)O[C@H]1[C@H](O)[C@H](OC)[C@H](OC/C2=C\C=C\C[C@H](O)/C(C)=C/[C@H](CC)[C@@H](O[C@@H]3OC(C)(C)[C@@H](OC(=O)C(C)C)[C@H](O)[C@@H]3O)/C(C)=C/C(C)=C/C[C@@H]([C@@H](C)O)OC2=O)O[C@@H]1C` [Fidaxomicin, fidaxomicin], the minimum inhibitory concentration (MIC) was 4 µg/mL (≈ 3.78 µM) in test [1] (setting [8]); 4 µg/mL (≈ 3.78 µM) in test [1] (setting [9]); 4 µg/mL (≈ 3.78 µM) in test [1] (setting [10]); 2 µg/mL (≈ 1.89 µM) in test [1] (setting [11]); below 1 µg/mL in test [2]; 2 µg/mL in test [3]. Also, the MIC in test [4] is below 1 µg/mL.
Consider `CN[C@H](CC(C)C)C(=O)N[C@H]1C(=O)N[C@@H](CC(N)=O)C(=O)N[C@H]2C(=O)N[C@H]3C(=O)N[C@H](C(=O)N[C@H](C(=O)O)c4cc(O)cc(O)c4-c4cc3ccc4O)[C@H](O)c3ccc(c(Cl)c3)Oc3cc2cc(c3O[C@@H]2O[C@H](CO)[C@@H](O)[C@H](O)[C@H]2O[C@H]2C[C@](C)(N)[C@H](O)[C@H](C)O2)Oc2ccc(cc2Cl)[C@H]1O` [Vancomycin], for which the MIC in test [5] was 0.5 µg/mL (≈ 0.345 µM); in test [6], 0.5 to 1 µg/mL (≈ 0.345 to 0.69 µM); in test [7], 0.5 µg/mL (≈ 0.345 µM); in test [1] (ART24, read-out: MIC for ART24) it was 0.5 µg/mL (≈ 0.345 µM). In test [1], the “MIC interpretation for ART24” value was 0.5 (S) and ≤0.25 (S). For the same molecule, the “animals survived (survivors/group)” value in the test with C. difficile ATCC 43255 is reported as 15/15.

Broadly, the MIC is the smallest concentration in the dilution series that meets the test's criterion for growth inhibition.
